Entries after “also recorded” stand apart in the source; their conditions may differ. Where two headings read alike, the source gives them in different places.
How the values were obtained:
A-beta1-42 peptide = A-beta1-42 peptide (Homo sapiens, UniProt P05067); test: CD: reversal of the aluminum effect on the A-beta1-42 peptide spectrum (Example 3); type: biochemical
A-beta peptide = test system: A-beta peptide; set-up: species or system human
Caco-2 cells [1] = settings: Caco-2
A-beta peptide fragment = A-beta peptide fragment (Homo sapiens, UniProt P05067); test: CD helix-coil reversal and pretreatment experiments (Example 11); type: biochemical
NF-M17 = target: T1, NF-M17 (Homo sapiens, UniProt P07197); test: CD titration: restoration of the CD spectrum of NF-M17 exposed to aluminum; type: biochemical
T1 construct: a seventeen amino acid region of the human neurofilament mid-sized subunit protein, NF-M17; host or cells: chemical synthesis

Caco-2 cells [2] = test system: Caco-2 cells

A-beta1-42 peptide, sequence (P05067 672-713): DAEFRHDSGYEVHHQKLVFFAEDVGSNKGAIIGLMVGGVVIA
A-beta peptide fragment, sequence (P05067 672-713): as above

## CN(C)[Si](N(C)C)(N(C)C)N(C)C [tetrakis, tetrakis(dimethylamino)silane]
A-beta1-42 peptide
  restoration of the original CD spectrum of the peptide after exposure to aluminum: at least partially restored

## CCC(C#N)C[Si](C)(Cl)Cl (stereo not drawn) [CBMS, 2-cyanobutylmethyldichlorosilane]
A-beta peptide
  total extracted: 3.6 fmol
Caco-2 cells [1]; human
  Permeation Coefficient (cm/sec) Mean ± SD, where applicable: 6.5e-06 cm/s
  Total Permeation Coefficient (cm/sec) Mean ± SD, where applicable, Caco-2: 6.5e-06 cm/s
MDCK cells; dog
  Total Permeation Coefficient (cm/sec) Mean ± SD, where applicable, MDCK: 1.5e-06 cm/s
A-beta peptide fragment
  recovery of helicity in Al-denatured peptide / reversal of aluminum-induced denaturation (CD): appeared to reverse aluminum-induced denaturation

## triethoxysilylpropionitrile [TESP]
A-beta1-42 peptide
  restoration of the original CD spectrum of the peptide after exposure to aluminum: at least partially restored

## N#CCCC[Si](Cl)(Cl)Cl [CPTCS, 3-cyanopropyltrichlorosilane]
A-beta1-42 peptide
  restoration of the original CD spectrum of the peptide after exposure to aluminum: able to restore the CD spectrum
  reversal of the effects of aluminum on the CD spectrum of the peptide: Moderate reversal; also recorded: almost full reversal
NF-M17
  Restore original spectra?: Yes
  equivalents at which the CD spectrum of NF-M17/aluminum is restored to (similar to) its original shape: around 32 equivalents

## Trihydroxysilylmethyl phosphonate
Caco-2 cells [1]
  permeation across Caco-2 cells compared with mannitol: slower permeation

## CC[Si](Cl)(Cl)CC [DCDES, dichlorodiethylsilane]
A-beta1-42 peptide
  restoration of the original CD spectrum of the peptide after exposure to aluminum: at least partially restored
NF-M17
  Restore original spectra?: Yes
  equivalents at which the CD spectrum of NF-M17/aluminum is restored to (similar to) its original shape: around 32 equivalents

## CCCCCCCC[Si](Cl)(Cl)Cl [OTCS, n-octyltrichlorosilane]
NF-M17
  Restore original spectra?: did not restore; also recorded: (gelation of OTCS)

## CC(=O)O[Si](OC(C)=O)(OC(C)=O)OC(C)=O [TAS, tetraacetooxysilane]
A-beta1-42 peptide; 8 to 12 equivalents of aluminum
  restoration of the original CD spectrum of the peptide after exposure to aluminum: at least partially restored

## trihydroxysilylmethyl phosphonate
Caco-2 cells [1]
  crossing of the epithelial barrier in the Caco-2 model: permeated less efficiently

## trihydroxysilylmethyl phosphonate [TSMP]
Caco-2 cells [1]
  Cell Permeation Coefficient (cm/sec) Caco-2: 2e-07 cm/s
  Permeation Coefficient (cm/sec) Mean ± SD, where applicable: 1.9 ± 1.5 × 10^−7 cm/sec
  Total Permeation Coefficient (cm/sec) Mean ± SD, where applicable, Caco-2: 1.9 ± 1.5 × 10^−7 cm/sec
  permeation across Caco-2 cells compared with mannitol: slower permeation
MDCK cells
  Cell Permeation Coefficient (cm/sec) MDCK: 5.4e-07 cm/s
  Total Permeation Coefficient (cm/sec) Mean ± SD, where applicable, MDCK: 5.2 ± 7.0 × 10^−7 cm/sec
  permeation across MDCK cells compared with mannitol: slower permeation

## CC(C)(C)[Si](C)(C)O [TBDMS, tert-butyldimethylsilanol]
NF-M17
  Restore original spectra?: did not restore and No

## O[Si](O)(c1ccccc1)c1ccccc1 [DPSD, diphenylsilandiol]
NF-M17; CD spectrum of NF-M17 with 8 equivalents of aluminum, titration up to 32 equivalents
  Restore original spectra?: did not restore; also recorded: (DMSO interfered with spectra)

## (dichloro)methylsilylbutyronitrile [DCMSBN]
A-beta1-42 peptide
  restoration of the original CD spectrum of the peptide after exposure to aluminum: at least partially restored
NF-M17
  Restore original spectra?: Yes
  equivalents at which the CD spectrum of NF-M17/aluminum is restored to (similar to) its original shape: around 32 equivalents
Caco-2 cells [2]
  transport across Caco-2 cells, FIG. 29B compounds compared with FIG. 29A compounds: more transport
  transport across the Caco-2 cells: significant amount of transport

## CC[Si](O)(CC)Cc1ccccc1 [BDS, benzyldiethylsilanol]
NF-M17
  Restore original spectra?: did not restore and No

## sodium orthosilicate [reference compound]
A-beta1-42 peptide
  restoration of the original CD spectrum of the peptide after exposure to aluminum: at least partially restored
NF-M17
  equivalents at which some return / beginning of return of the CD curve to its original shape is seen: 4 equivalents
  equivalents at which the CD spectrum of NF-M17/aluminum is restored to (similar to) its original shape: around 16 equivalents

## CC[Si](O)(CC)CC [TES, triethylsilanol]
A-beta1-42 peptide
  restoration of the original CD spectrum of the peptide after exposure to aluminum: at least partially restored
NF-M17
  Restore original spectra?: did not restore and No

## triethoxysilylbutyronitrile [TESB]
Caco-2 cells [1]
  Cell Permeation Coefficient (cm/sec) Caco-2: 3.7e-05 cm/s
  Permeation Coefficient (cm/sec) Mean ± SD, where applicable: 3e-05 cm/s
  Total Permeation Coefficient (cm/sec) Mean ± SD, where applicable, Caco-2: 2.8 ± 1.8 × 10^−5 cm/sec
  cell permeation coefficient compared with mannitol, Caco-2: at least ten times greater
  crossing of the epithelial barrier in the Caco-2 model: cross the epithelial barrier relatively efficiently
  permeation across Caco-2 cells compared with mannitol: at least ten times greater
A-beta1-42 peptide
  restoration of the original CD spectrum of the peptide after exposure to aluminum: at least partially restored
MDCK cells
  Cell Permeation Coefficient (cm/sec) MDCK: 2.7e-05 cm/s
  Total Permeation Coefficient (cm/sec) Mean ± SD, where applicable, MDCK: 2.2 ± 1.4 × 10^−5 cm/sec
  cell permeation coefficient compared with mannitol, MDCK: at least ten times greater
  crossing of the epithelial barrier in the MDCK model: cross the epithelial barrier relatively efficiently
  permeation across MDCK cells compared with mannitol: at least ten times greater
A-beta peptide fragment
  recovery of helicity in Al-denatured peptide / reversal of aluminum-induced denaturation (CD): appeared to reverse aluminum-induced denaturation
Caco-2 cells [2]
  transport across Caco-2 cells, FIG. 29B compounds compared with FIG. 29A compounds: more transport
  transport across the Caco-2 cells: significant amount of transport

## sodium metasilicate nonahydrate [reference compound]
NF-M17
  equivalents at which some return / beginning of return of the CD curve to its original shape is seen: about 32 equivalents

## triethoxysilylbutyronitrile
Caco-2 cells [1]
  crossing of the epithelial barrier in the Caco-2 model: crossed the epithelial barrier efficiently
  permeation across Caco-2 cells compared with mannitol: at least four times greater
A-beta1-42 peptide
  restoration of the original CD spectrum of the peptide after exposure to aluminum: reverses aluminum-induced denaturation

## NCCC[Si](O)(O)O [APST, 3-aminopropylsilantriol]
NF-M17
  Restore original spectra?: Yes
  chelation of aluminum compared to sodium orthosilicate: improved chelation of aluminum

## C1CC[Si]2(CCCCO2)OC1 [SDSU, 1,7-dioxa-6-sila-spiro[5.5]undecane]
A-beta1-42 peptide
  restoration of the original CD spectrum of the peptide after exposure to aluminum: at least partially restored
Caco-2 cells [2]
  transport across the Caco-2 cells: significant amount of transport

## CCCCCC[Si](C)(Cl)Cl [HMDS, hexylmethyldichlorosilane]
A-beta1-42 peptide
  restoration of the original CD spectrum of the peptide after exposure to aluminum: at least partially restored
NF-M17
  Restore original spectra?: Yes
  equivalents at which the CD spectrum of NF-M17/aluminum is restored to (similar to) its original shape: around 32 equivalents

## C[Si](Cl)(Cl)CC[Si](C)(Cl)Cl [1,2-(methyldichlorosilyl)ethane]
Caco-2 cells [1]
  permeation across Caco-2 cells compared with mannitol: at least four times greater

## C[Si](Cl)(Cl)c1ccccc1 [MPDS, methylphenyldichlorosilane]
NF-M17
  Restore original spectra?: Yes
  equivalents at which the CD spectrum of NF-M17/aluminum is restored to (similar to) its original shape: around 32 equivalents

## CC(C#N)C[Si](C)(Cl)Cl (stereo not drawn) [CPMS, 2-cyanopropylmethyldichlorosilane]
A-beta peptide
  total extracted: 5.3 fmol
Caco-2 cells [1]
  permeation across Caco-2 cells compared with mannitol: approximately three times more efficiently
Caco-2 cells [1]; human
  Permeation Coefficient (cm/sec) Mean ± SD, where applicable: 6.1 ± 1.7 × 10^−6 cm/sec
  Total Permeation Coefficient (cm/sec) Mean ± SD, where applicable, Caco-2: 6.1 ± 1.7 × 10^−6 cm/sec
MDCK cells; dog
  Total Permeation Coefficient (cm/sec) Mean ± SD, where applicable, MDCK: 1.2e-06 cm/s
A-beta peptide fragment
  recovery of helicity in Al-denatured peptide / reversal of aluminum-induced denaturation (CD): appeared to reverse aluminum-induced denaturation

## CC(C)[Si](Cl)(Cl)C(C)C [DCDIPS, dichlorodiisopropylsilane]
A-beta1-42 peptide
  restoration of the original CD spectrum of the peptide after exposure to aluminum: at least partially restored
NF-M17
  Restore original spectra?: Yes
  equivalents at which the CD spectrum of NF-M17/aluminum is restored to (similar to) its original shape: around 32 equivalents

## dichlorosilacyclobutane [DCSCB]
A-beta1-42 peptide
  restoration of the original CD spectrum of the peptide after exposure to aluminum: at least partially restored
Caco-2 cells [2]
  transport across the Caco-2 cells: significant amount of transport
